Reference: US11712458B2, “Degradation of Bruton's tyrosine kinase (BTK) by conjugation of BTK inhibitors with E3 ligase ligand and methods of use” (DANA-FARBER CANCER INSTITUTE, INC., priority 2018, dated 2023)

Tested on: patient-derived mantle cell lymphoma (MCL) cells (DFBL-96069)
Assay: Patient-derived xenograft MCL mouse model
Type: in vivo
Conditions: NSG mice grafted with MCL cells, IP, QD, 50 mg/kg, two weeks; FIG. 5
Method: NSG Mice were grafted with patient-derived mantle cell lymphoma (MCL) cells (DFBL-96069). Once burden of disease reached ˜2%, treatment began with indicated compounds: vehicle (IP, BID), Compound I-1 (IP, QD, 50 mg/kg), lenalidomide (IP, QD, 50 mg/kg), and ibrutinib (PO, QD, 30 mg/kg). Mice were treated for two weeks and 4-6 hours after the last dose, peripheral blood was taken and quantified for disease burden via flow cytometry.

Cc1c(NC(=O)c2ccc(C(C)(C)C)cc2)cccc1-c1cn(C)c(=O)c(Nc2ccc(C(=O)N3CCN(CCCCCCNC(=O)CNc4cccc5c4C(=O)N(C4CCC(=O)NC4=O)C5=O)CC3)cc2)n1 (stereo not shown) [II-1]
Efficacy (disease burden in peripheral blood via flow cytometry): showed efficacy
